Like-named read-outs stand apart in the source and are kept apart here.
Assays:
[1] = biological target: T1, AR-LBD interaction with the full-length AR (Homo sapiens, UniProt P10275); assay: Two-hybrid interaction assay in PC-3 cells; type: cell-based; details: 20 h
T1 construct: expressed in transfected cells; host or cells: PC-3
T1 sequence (P10275 669-900 limits assumed): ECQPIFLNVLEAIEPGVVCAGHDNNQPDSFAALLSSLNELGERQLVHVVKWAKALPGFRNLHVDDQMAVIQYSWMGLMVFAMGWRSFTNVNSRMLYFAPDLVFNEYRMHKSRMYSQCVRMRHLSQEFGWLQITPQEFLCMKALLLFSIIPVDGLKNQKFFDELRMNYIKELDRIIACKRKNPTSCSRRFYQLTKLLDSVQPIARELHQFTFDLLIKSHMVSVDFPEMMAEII
Description: Second, the AR-LBD interaction with the full-length AR can be detected by a two-hybrid interaction assay in PC-3 cells through transfection of GBD-AR-LBD and AR fused with the VP16 activation domain (AR-VP16). […] The transfected cells were treated with vehicle or various compounds for another 20 h. Luciferase activity was measured using the luciferase reporter gene assay system (Promega, Madison, Wis.) and normalized against respective Renilla luciferase values.

[2] = test system: PC-3 cells; assay: Cell cycle distribution by propidium iodide flow cytometry; type: cell-based, human; details: 48 h
Description: The cell cycle of treated cells was examined by flow cytometry after cellular staining with propidium iodide. 5×10^5 cells were seeded into 6-well multidishes with 10% FBS culture medium for 48 h. […] Cells were trypsinized thereafter, washed twice with cold PBS, and centrifuged. The pellet was suspended in cold PBS and 1 mL of 70% ethanol at 4° C. overnight, washed twice with cold PBS, and digested with RNase (100 μg/mL final concentration) and stained with propidium iodide (10 μg/mL final concentration) for 30 min and analyzed by flow cytometry (EPICS XL-MCL, Beckman Coulter, Inc., Fullerton, Calif.).

[3] = test system: LNCaP cells; assay: MTT cell viability; type: cell-based, human; details: concentrations above 10 μM, 48 h
Description: (§1) The effects of HDHS on cell viability in various PCa cell lines including androgen-dependent LNCaP, androgen-responsive 22Rv1 cells, and androgen-independent PC-3 cells were tested and compared with untransformed fibroblast NIH-3T3 cells. PCa or NIH-3T3 cells (1×10^4 cells) were seeded into 96-well microtiter plates with 10% FBS culture medium. After 24 h, cells were incubated in 10% FBS medium containing different concentrations of HDHS or equivalent amounts of vehicle alone as control for 48 h. Cell viability was then determined by MTT assay, which quantitatively measures the metabolic activity of living cells.

[4] = test system: PC-3 cells; assay: MTT cell viability; type: cell-based, human; details: PC-3, concentrations above 10 μM, 48 h, versus LNCaP and 22Rv1
Description: as §1

[5] = test system: 22Rv1 cells; assay: MTT cell viability; type: cell-based, human; details: 22Rv1, concentrations above 10 μM, 48 h
Description: as §1

[6] = HDHS levels in plasma and tumors of treated nude mice (HPLC); type: in vivo; details: 24 h after the last of 24 doses; for concentration at 24 h after the last dose: athymic (nu/nu) nude, mouse, in vivo, read-out: HDHS level in plasma
Description: 22Rv1 cells were derived from a castration-relapsed tumor of human PCa origin that represents a clinical limitation for hormonal therapy (Nagabhushan M, et al., Cancer Res 1996;56:3042-6; Sramkoski R M, et al., In Vitro Cell Dev Biol Anim 1999; 35:403-9). The potential of HDHS to inhibit growth of PCa in vivo was tested in athymic nude mice with 22Rv1 tumors. […]. All animal work was done in accordance with the protocol approved by the Institutional Animal Care and Use Committee, Academia Sinica. Aliquots of 1×10^6 22Rv1 cells were suspended in 1:1 PBS mixed with Matrigel (BD Biosciences, San Jose, Calif.) and were subcutaneously inoculated into the right flank of each mouse. Once the tumor grew to palpable size one week after 22Rv1 cells were implanted, mice were stochastically assigned to three groups (n=7) that received vehicle control or HDHS at different dosages (0.5 and 2.5 mg/kg/day), by gavage in 0.2 mL of PBS containing 10% DMSO. Tumors were measured twice per week using calipers and their volumes calculated using a standard formula, as follows: width2×length×0.5. Body weight was measured weekly. Mice received 24 doses, and 24 h after the last dose they were sacrificed to harvest plasma and tumors. A portion of each tumor was snap-frozen in liquid nitrogen and stored at −80° C. until needed for western blot analysis of relevant biomarkers, and the remainder was fixed in 10% formalin overnight.
In order to further understand the dose-effect relationships, the attainable levels of HDHS in plasma and tumors were detected 24 h after the last dose of HDHS regimen in the tested mice. […]. These increases of HDHS concentrations in plasma and tumors were dose-dependent and consistent with the extent of tumor suppression (FIGS. 6A and B).

[7] = test system: LNCaP cells; assay: Western blot of caspases, PARP, p53 and Bcl-xL; type: cell-based, human; details: 10 μM
Description: During apoptosis, various caspases are activated which are involved in the cleavage and […] a range of cellular substrates, including […] the DNA repair enzyme PARP (Herceg Z et al., Mol Cell Biol 1999;10:5124-33; Okada H et al., Nat Rev Cancer 2004; 4:592-603). In the presence of 10 μM HDHS, PARP cleavage was observed, and at the same time caspase-3 and -7 were activated by proteolytic cleavage (FIG. 4B, lane 5). […] In contrast, activation of caspase-3 and -7 or cleavage of PARP were not detected in PC-3 cells treated with 10 μM HDHS for 24 h (FIG. 4B, lane 10). Tumor suppressor p53 is a control for the G1 checkpoint and cell apoptosis, and LNCaP cells express wild-type p53 (van Bokhoven A et al., Prostate 2003; 57:205-25).

CC(C)c1cc2c(cc1O)[C@@]1(C)CCCC(C)(C)C1=C(O)C2=O [Compound 2, 6,12-dihydroxyabieta-5,8,11,13-tetraen-7-one]
effect on DHT-induced two-hybrid interaction [1]: competitively inhibited | G0-G1 phase cell population ([2]; PC-3, 2.5 μM): 52.7 ± 2.0 % | G2-M phase cell population ([2]; PC-3, 2.5 μM): 24.9 ± 2.7 % | S phase cell population ([2]; PC-3, 2.5 μM): 19.2 ± 1.0 % | Sub-G1 phase cell population ([2]; PC-3, 2.5 μM): 2.3 ± 0.7 % | G0-G1 phase cell population ([2]; PC-3, 5 μM): 55.9 ± 2.9 % | G2-M phase cell population ([2]; PC-3, 5 μM): 19.5 ± 2.9 % | S phase cell population ([2]; PC-3, 5 μM): 18.8 ± 1.1 % | Sub-G1 phase cell population ([2]; PC-3, 5 μM): 2.8 ± 0.9 % | G0-G1 phase cell population ([2]; PC-3, 10 μM): 58.2 ± 2.8 % | G2-M phase cell population ([2]; PC-3, 10 μM): 19.2 ± 3.2 % | S phase cell population ([2]; PC-3, 10 μM): 18.0 ± 1.9 % | Sub-G1 phase cell population ([2]; PC-3, 10 μM): 2.1 ± 0.6 % | cell viability (MTT) [3]: strongly reduced cell viability | cell viability (MTT) [4]: far less pronounced | cell viability (MTT) [5]: strongly reduced cell viability | concentration at 24 h after the last dose ([6]; oral 0.5 mg/kg): 450 ± 140 nM | concentration at 24 h after the last dose ([6]; oral 2.5 mg/kg): 1450 ± 300 nM | HDHS level in tumor tissues ([6]; oral 0.5 mg/kg): 98.45 ± 19.80 nmol/g | HDHS level in tumor tissues ([6]; oral 2.5 mg/kg): 154.93 ± 12.97 nmol/g | PARP cleavage [7]: observed | caspase-3 and -7 proteolytic cleavage [7]: activated | decrease of anti-apoptotic regulator Bcl-xL level ([7]; 24 h): ~50% | increase in p53 ([7]; 24 h): 3 fold
